Assay results published in patent US20250339391A1, “METHODS FOR EFFECTIVE MANAGEMENT OF PAIN” (South Rampart Pharma, Inc., priority 2024, published 2025).
Entries after “also recorded” stand apart in the source; their conditions may differ.

Experiments:
[1] = Genotoxicity battery, weight of the evidence; conditions: Ames, chromosomal aberration, micronucleus and Comet assays
Protocol: To transition SRP-001 into the clinic for human use, a full set of in vivo and in vitro genotoxicity studies were performed to assess the potential genotoxicity of SRP-001.
To further evaluate the potential genotoxicity of SRP-001 and determine the validity of the in vitro findings, a second in vivo assay, a GLP-compliant Comet assay, was conducted in accordance with ICH S2(R1) Guidance on Genotoxicity Testing and Data Interpretation for Pharmaceuticals Intended for Human Use. […] SRP-001 was tested to evaluate its mutagenic potential by measuring its ability to induce reverse mutations at selected loci of several strains of Salmonella typhimurium (S. typhimurium) and at the tryptophan locus of Escherichia coli (E. coli) strain WP2 uvrA in the presence and absence of an exogenous metabolic activation system (Bioreliance, Rockville, MD USA). Dimethyl sulfoxide (10% DMSO) was used as the vehicle. The dose levels tested in the preliminary toxicity assay were 6.67, 10.0, 33.3, 66.7, 100, 333, 667, 1000, 3333, and 5000 μg per plate. No precipitate was observed. […] The dose levels tested in the mutagenicity assay were 100, 333, 667, 1000, 3333, and 5000 μg per plate. […] In the preliminary toxicity assay, the doses tested ranged from 0.0405 to 405 μg/mL (1 mM), which was the limit dose for this assay (Bioreliance, Rockville, MD USA).

[2] = test system: male Sprague-Dawley rats; conditions: rat, in vivo
Protocol: 1) Dose-Range-Finding Oral Toxicity Study with SRP-001 in Sprague-Dawley Rats (non-GLP) As part of a two-phase study, the maximum tolerated dose (MTD) of SRP-001 when administered via gavage once to Sprague-Dawley Rats using an ascending/descending dose design (Calvert Labs/Altasciences, Scott Township, PA USA). A total of 12 male Sprague-Dawley rats (3/dose group), approximately 8-9 weeks old and weighing 245-307 g, were administered single doses of […], 1000, 1500, or 2000 mg/kg SRP-001. Mortality/morbidity was performed twice daily and once prior to scheduled sacrifice. Clinical observations were evaluated prior to each dose administration and approximately 1-3 h post-dose, once daily on non-dosing days and additionally as needed. Body weights were recorded for animals in Groups 1-4 prior to randomization/selection, each dose administration, and scheduled sacrifice on day 3. Food consumption was recorded on day 3. […] Based on the results of this study, doses for the second phase were selected.

[3] = test system: Sprague-Dawley rats; assay: 28-day oral toxicity study in Sprague-Dawley rats with 14-day recovery (GLP); type: in vivo
Source text: 5) A 28-day Oral Toxicity Study of SRP-001 in Sprague-Dawley Rats with 14-day Recovery (GLP study) We next set out to determine the toxicity and toxicokinetics of SRP-001 when administered via oral gavage once daily to Sprague-Dawley Rats for 28 d (Calvert Labs/Altasciences, Scott Township, PA USA). The study also assessed the reversibility of any toxicity observed with a 14-d recovery period. One hundred thirty-six experimentally naïve Sprague-Dawley rats (68 males and 68 females), 8 weeks old and weighing 167-295 g for males and females at the outset of the study, were assigned to toxicology treatment groups (Groups 1-4) or toxicokinetic groups (Groups 5-7). For toxicology groups, 10 animals/sex/dose were administered 0, 300, 900, or 1500 mg/kg/d SRP-001. An additional 5 animals/sex/dose in Groups 1 and 4 were targeted for a 14-d recovery period and euthanized on day 43. For toxicokinetic groups, 6 animals/sex/dose were administered 300, 900, or 1500 mg/kg/d SRP-001. Mortality/morbidity was performed twice daily and once prior to scheduled sacrifice. Animals in Groups 1-4 were observed prior to each dose administration and 1-3 h post-dose. Animals in Groups 1-4 were also observed once daily on non-dosing days and once prior to scheduled sacrifice. Body weights were recorded prior to randomization/selection, prior to dose administration on day 1, and weekly thereafter. Food consumption was determined weekly for animals in Groups 1-4. Ophthalmology examinations were performed before treatment initiation and during the last week of dosing for animals in Groups 1-4. The functional observational battery was assessed for 5 animals/sex/group in Groups 1-4 once prior to dosing and at 1-2 h following dose administration on day 1. Blood for evaluation of hematology, coagulation, and clinical chemistry and urine for urinalysis was collected from animals in Groups 1-4 on day 29 or day 43. Blood for toxicokinetic evaluation was collected from animals in Groups 5-7 at selected timepoints on days 1 and 28. All surviving animals in Groups 1-4 were sacrificed on day 29 or day 43. Selected tissues were harvested at necropsy, selected organs weighed, and selected tissues evaluated microscopically.

[4] = Jet milling and nano-milling: particle size and solubility; type: physicochemical
Protocol: In certain instances, a crystalline compound of Formula I is jet milled. Thereafter, the milled compound of Formula I is dispersed in a solution comprising 1% hydroxypropyl cellulose (1% HPC) and sterile water for injection and subjected to wet milling. The target particle size is approximately D90 0.15 μm. The disclosure provides using nanomilling and jet-milling techniques, to prepare an oral nanoparticle suspension containing 100 mg/mL SRP-001 in preserved aqueous 1% HPC. An oral nanoparticle suspension containing 100 mg/mL SRP-001 in aqueous 1% HPC preserved with 0.1% sodium benzoate was used.
The drug therapeutic candidate is manufactured in a two-step process (Latitude Pharmaceuticals, Inc., San Diego, CA USA). First, SRP-001 is jet milled. Second, the milled API is dispersed in a solution comprising 1% hydroxypropyl cellulose (1% HPC) and sterile water for injection and subjected to wet milling. The target particle size is approximately D90 0.15 μm. […] An oral nanoparticle suspension containing 100 mg/mL SRP-001 in aqueous 1% HPC preserved with 0.1% sodium benzoate was manufactured for use in nonclinical studies as Lot LPI2021028 and stored at 5° C.±3° C. […] The same formulation as above was manufactured under cGMP for use in clinical studies as Lot LPI2021031 and stored at 5° C.±3° C. […] This lot has been placed on stability at 5° C., 25° C./60% RH, and 40° C./75% RH. Finally, an appearance-matched placebo consisting of 2% microcrystalline cellulose in aqueous 1% HPC preserved with 0.1% sodium benzoate and 0.05% EDTA disodium dihydrate was manufactured under cGMP for use in clinical studies. The above oral suspensions were manufactured by Latitude Pharmaceuticals Inc. (San Diego, CA, USA).

With `CCN(CC)C(=O)c1ccccc1S(=O)(=O)NCC(=O)Nc1ccc(O)cc1` [SRP-001, N,N-diethyl-2-[[2-(4-hydroxyanilino)-2-oxo-ethyl]sulfamoyl]benzamide] the “genotoxicity, overall conclusion” value [1] was “not genotoxic; also recorded: negative for genotoxicity”, the “clinical observations after single dose” value [2] was “Nearly all the animals appeared normal following dosing” and the “mortality after single doses” value [2] was “did not result in any mortality”. For the same molecule, the “doses with minimal to mild centrilobular hepatocellular hypertrophy” value ([3]; both, Sprague-Dawley, rat, in vivo, 28 d) was no less than 300 mg/kg/day, the “doses without treatment-related adverse effects” value ([3]; both, Sprague-Dawley, rat, in vivo, po, 28 d) was “up to 1500 mg/kg/day” and the “no-adverse effect level (NOAEL)” value ([3]; once daily for 28 d) was 1500 mg/kg. For the same molecule, the “hematology and serum chemistry changes” value ([3]; rat, in vivo) was “increases in globulin, albumin, and total protein and decreases in aspartate aminotransferase, alkaline phosphatase, and mean corpuscular hemoglobin concentration”, the solubility ([4]; after jet milling and nano-milling) was “increase the solubility” and the particle size ([4]; after jet milling and nano-milling for 17 h (FIG. 25A)) was 0.1666 μm. For the same molecule, the particle size ([4]; before milling (FIG. 25B)) was 879.33 μm.
